Assay results as given in the kinase profiling compilation of Christmann-Franck et al. (2016).
Several values for one entry are separate records, joined by “and”; a condition that tells them apart may be missing. Identical values can stand only once.

Assays:
Experiment in all cases: radiometric filter-binding kinase assay, Kinase HotSpot
Conditions in all cases: compound 0.5 µM; ATP 10 µM
[1] = target: MARK1 (human) (UniProt Q9P0L2)
[2] = target: PRKACG (human) (UniProt P22612)
[3] = target: MLTK (human) (UniProt Q9NYL2)
[4] = target: CSNK2A1 (human) (UniProt P68400)
[5] = target: CDK2 CCNA2 (human) (UniProt P24941+P20248)
[6] = target: CDK4 CCND1 (human) (UniProt P24385+P11802)
[7] = target: PHKG2 (human) (UniProt P15735)
[8] = target: CAMK1G (human) (UniProt Q96NX5)
[9] = target: NEK3 (human) (UniProt P51956)
[10] = target: EPHB2 (human) (UniProt P29323)
[11] = target: CAMKK2 (human) (UniProt Q96RR4)
[12] = target: MST1R (human) (UniProt Q04912)
[13] = target: DSTYK (human) (UniProt Q6XUX3)
[14] = target: MAP3K8 (human) (UniProt P41279)
[15] = target: AURKC (human) (UniProt Q9UQB9)
[16] = target: STK4 (human) (UniProt Q13043)
Sequence of STK4 (human) (Q13043 whole entry, looked up): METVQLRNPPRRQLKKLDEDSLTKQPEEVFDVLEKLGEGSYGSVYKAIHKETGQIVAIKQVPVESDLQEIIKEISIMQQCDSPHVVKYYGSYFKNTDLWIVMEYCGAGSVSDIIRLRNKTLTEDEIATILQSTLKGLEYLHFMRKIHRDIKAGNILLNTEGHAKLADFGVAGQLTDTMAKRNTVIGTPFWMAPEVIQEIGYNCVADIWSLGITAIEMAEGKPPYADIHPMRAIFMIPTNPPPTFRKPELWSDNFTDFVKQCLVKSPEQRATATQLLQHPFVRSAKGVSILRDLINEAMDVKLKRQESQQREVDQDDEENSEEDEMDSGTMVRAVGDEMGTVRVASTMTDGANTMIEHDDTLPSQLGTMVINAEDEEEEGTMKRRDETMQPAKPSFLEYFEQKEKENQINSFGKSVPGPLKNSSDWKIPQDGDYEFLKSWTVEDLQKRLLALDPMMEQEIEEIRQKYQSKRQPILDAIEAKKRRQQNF

[17] = target: STK11 (human) (UniProt Q15831)
Sequence of STK11 (human) (Q15831 whole entry, looked up): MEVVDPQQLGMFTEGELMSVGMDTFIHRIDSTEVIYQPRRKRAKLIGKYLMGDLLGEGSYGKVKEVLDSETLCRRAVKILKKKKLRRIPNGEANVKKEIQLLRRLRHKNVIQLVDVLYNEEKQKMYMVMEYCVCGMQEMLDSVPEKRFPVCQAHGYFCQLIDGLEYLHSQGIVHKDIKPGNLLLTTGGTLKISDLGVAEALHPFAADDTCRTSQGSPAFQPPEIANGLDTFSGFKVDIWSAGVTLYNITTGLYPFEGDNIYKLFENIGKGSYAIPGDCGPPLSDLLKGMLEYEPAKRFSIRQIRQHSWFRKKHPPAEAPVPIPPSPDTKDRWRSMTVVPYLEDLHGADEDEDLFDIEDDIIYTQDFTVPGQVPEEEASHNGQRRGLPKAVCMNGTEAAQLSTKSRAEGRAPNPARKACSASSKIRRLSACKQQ

[18] = target: PRKCB1 (human) (UniProt P05771)
[19] = target: EPHB3 (human) (UniProt P54753)
[20] = target: CSNK1E (human) (UniProt P49674)
[21] = target: PRKCA (human) (UniProt P17252)
[22] = target: MYO3B (human) (UniProt Q8WXR4)
[23] = target: FYN (human) (UniProt P06241)
[24] = target: AURKA (human) (UniProt O14965)
Sequence of AURKA (human) (O14965 whole entry, looked up): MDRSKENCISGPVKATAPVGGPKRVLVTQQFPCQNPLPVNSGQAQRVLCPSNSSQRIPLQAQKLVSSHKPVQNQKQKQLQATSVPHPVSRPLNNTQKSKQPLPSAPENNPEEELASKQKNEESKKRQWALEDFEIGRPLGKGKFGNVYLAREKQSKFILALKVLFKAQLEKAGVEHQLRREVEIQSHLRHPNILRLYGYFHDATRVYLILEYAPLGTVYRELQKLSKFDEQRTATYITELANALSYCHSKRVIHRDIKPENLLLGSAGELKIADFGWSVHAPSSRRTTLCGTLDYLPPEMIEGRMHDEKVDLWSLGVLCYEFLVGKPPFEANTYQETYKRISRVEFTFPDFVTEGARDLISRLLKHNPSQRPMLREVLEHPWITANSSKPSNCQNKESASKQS

[25] = target: MAP4K4 (human) (UniProt O95819)
[26] = target: EPHA6 (human) (UniProt Q9UF33)
[27] = target: HCK (human) (UniProt P08631)
Sequence of HCK (human) (P08631 whole entry, looked up): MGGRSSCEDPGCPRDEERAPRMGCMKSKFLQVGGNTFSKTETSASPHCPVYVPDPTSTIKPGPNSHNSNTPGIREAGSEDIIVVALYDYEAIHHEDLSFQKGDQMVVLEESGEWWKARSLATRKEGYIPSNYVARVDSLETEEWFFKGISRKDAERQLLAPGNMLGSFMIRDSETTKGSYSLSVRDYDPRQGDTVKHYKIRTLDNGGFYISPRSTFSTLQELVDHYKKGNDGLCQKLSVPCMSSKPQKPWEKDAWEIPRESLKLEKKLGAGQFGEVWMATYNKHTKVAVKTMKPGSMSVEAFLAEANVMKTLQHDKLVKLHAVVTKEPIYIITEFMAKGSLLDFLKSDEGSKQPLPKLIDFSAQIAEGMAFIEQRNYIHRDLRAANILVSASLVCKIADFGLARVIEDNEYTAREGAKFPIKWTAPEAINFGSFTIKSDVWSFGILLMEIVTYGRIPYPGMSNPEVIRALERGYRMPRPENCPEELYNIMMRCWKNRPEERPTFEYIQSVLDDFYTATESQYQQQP

[28] = target: MAP4K5 (human) (UniProt Q9Y4K4)
Sequence of MAP4K5 (human) (Q9Y4K4 whole entry, looked up): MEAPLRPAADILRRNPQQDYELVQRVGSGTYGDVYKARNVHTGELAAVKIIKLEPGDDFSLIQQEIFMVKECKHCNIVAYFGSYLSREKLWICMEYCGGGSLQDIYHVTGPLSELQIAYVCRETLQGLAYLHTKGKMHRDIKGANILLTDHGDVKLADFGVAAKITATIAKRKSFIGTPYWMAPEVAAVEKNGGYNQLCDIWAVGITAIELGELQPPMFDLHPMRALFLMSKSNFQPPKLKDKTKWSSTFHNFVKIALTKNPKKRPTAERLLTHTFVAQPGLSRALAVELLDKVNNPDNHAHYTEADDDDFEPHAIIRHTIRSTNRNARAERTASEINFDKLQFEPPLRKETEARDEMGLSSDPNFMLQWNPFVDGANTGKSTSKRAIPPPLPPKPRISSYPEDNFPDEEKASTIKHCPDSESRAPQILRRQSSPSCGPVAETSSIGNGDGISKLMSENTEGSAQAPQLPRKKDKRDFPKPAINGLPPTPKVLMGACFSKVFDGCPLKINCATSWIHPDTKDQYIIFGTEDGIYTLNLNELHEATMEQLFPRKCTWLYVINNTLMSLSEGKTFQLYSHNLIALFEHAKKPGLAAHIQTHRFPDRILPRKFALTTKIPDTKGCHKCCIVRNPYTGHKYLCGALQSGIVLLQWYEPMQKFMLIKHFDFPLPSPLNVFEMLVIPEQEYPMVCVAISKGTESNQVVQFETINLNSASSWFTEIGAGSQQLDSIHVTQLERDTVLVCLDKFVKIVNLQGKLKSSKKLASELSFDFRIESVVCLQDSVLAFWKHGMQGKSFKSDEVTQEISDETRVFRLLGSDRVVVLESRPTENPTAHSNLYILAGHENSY

[29] = target: CDK4 CCND3 (human) (UniProt P30281+P11802)
[30] = target: PAK6 (human) (UniProt Q9NQU5)
Sequence of PAK6 (human) (Q9NQU5 whole entry, looked up): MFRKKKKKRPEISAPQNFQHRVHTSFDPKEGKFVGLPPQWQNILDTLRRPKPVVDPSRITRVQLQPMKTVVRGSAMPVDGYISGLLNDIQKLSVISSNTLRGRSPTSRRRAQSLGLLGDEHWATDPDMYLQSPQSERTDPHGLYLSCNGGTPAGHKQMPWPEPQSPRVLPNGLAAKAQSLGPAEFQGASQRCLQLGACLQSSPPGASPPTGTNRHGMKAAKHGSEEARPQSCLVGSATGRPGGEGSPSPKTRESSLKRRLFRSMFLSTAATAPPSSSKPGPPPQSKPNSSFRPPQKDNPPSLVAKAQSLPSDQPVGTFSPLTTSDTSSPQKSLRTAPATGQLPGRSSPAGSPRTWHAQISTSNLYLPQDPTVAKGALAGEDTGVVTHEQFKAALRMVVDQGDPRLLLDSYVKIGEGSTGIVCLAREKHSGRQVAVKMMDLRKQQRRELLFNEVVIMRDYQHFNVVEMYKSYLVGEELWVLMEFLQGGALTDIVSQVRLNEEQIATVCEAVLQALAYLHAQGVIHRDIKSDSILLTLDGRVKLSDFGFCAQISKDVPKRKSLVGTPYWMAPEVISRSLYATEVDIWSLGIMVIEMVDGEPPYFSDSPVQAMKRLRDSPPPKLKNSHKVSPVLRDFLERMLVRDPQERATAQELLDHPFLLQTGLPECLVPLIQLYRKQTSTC

[31] = target: LYN (human) (UniProt P07948)
[32] = target: ULK3 (human) (UniProt Q6PHR2)
[33] = target: MINK1 (human) (UniProt Q8N4C8)
[34] = target: STK38 (human) (UniProt Q15208)
Sequence of STK38 (human) (Q15208 whole entry, looked up): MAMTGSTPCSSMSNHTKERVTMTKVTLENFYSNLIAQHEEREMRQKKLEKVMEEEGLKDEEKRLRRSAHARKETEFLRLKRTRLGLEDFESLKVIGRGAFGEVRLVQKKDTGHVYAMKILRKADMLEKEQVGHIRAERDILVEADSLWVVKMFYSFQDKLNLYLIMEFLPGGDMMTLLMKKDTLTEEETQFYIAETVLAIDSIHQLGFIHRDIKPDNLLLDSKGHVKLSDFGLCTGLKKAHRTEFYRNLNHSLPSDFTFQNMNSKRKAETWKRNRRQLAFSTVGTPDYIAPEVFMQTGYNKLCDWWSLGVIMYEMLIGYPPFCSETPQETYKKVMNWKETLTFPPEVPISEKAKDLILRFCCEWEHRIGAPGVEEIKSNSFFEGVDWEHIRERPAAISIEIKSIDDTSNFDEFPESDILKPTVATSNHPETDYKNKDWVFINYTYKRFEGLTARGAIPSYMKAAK

[35] = target: JAK3 JH1 JH2 (human) (UniProt P52333)
[36] = target: EGFR (human) (UniProt P00533)
[37] = target: MAP2K1 (human) (UniProt Q02750)
Sequence of MAP2K1 (human) (Q02750 whole entry, looked up): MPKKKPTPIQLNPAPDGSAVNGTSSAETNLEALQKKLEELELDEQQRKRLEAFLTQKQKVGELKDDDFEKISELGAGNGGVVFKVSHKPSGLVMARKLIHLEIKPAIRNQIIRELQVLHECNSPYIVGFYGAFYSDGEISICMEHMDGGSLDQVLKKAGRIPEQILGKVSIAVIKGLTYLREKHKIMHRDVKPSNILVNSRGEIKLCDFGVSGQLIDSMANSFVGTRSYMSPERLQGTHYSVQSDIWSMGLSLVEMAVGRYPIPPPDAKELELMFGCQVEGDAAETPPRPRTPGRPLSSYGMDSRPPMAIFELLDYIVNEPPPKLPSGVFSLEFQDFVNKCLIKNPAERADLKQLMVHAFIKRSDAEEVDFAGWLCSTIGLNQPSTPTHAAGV

[38] = target: IRAK4 (human) (UniProt Q9NWZ3)
[39] = target: BRAF (human) (UniProt P15056)
[40] = target: IKBKE (human) (UniProt Q14164)
Sequence of IKBKE (human) (Q14164 whole entry, looked up): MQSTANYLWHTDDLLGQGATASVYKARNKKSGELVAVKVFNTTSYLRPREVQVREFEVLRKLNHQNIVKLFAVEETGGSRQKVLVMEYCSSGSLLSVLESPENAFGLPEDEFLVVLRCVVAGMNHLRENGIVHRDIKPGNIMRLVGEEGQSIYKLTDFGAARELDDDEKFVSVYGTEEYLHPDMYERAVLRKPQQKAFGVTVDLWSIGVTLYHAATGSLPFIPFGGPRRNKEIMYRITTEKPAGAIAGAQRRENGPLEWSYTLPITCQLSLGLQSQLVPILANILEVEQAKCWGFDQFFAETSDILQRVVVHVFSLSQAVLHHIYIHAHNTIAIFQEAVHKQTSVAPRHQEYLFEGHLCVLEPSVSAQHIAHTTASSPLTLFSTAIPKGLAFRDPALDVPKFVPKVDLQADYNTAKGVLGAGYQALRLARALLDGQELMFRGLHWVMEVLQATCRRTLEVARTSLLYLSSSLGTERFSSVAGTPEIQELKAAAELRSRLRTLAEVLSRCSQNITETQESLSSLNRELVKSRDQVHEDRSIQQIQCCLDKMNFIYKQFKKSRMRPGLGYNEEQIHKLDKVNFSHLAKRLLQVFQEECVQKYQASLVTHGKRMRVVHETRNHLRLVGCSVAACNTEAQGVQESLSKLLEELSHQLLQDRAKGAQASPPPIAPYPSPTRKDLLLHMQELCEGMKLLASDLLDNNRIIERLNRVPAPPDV

[41] = target: TLK2 (human) (UniProt Q86UE8)
[42] = target: LCK (human) (UniProt P06239)

`CCc1nc(-c2ccc(OC)cc2)[nH]c1-c1ccncc1` showed a residual activity [1] of 99.2%, a residual activity [2] of 103% and a residual activity [3] of 106%. It also gave a residual activity [4] of 95.3%, a residual activity [5] of 99.5% and a residual activity [6] of 107%. It also gave a residual activity [7] of 111%, a residual activity [8] of 98% and a residual activity [9] of 92.4%. It also gave a residual activity [10] of 111%, a residual activity [11] of 109% and a residual activity [12] of 101%. The residual activity [13] was 99.6%, the residual activity [14] was 95% and the residual activity [15] was 97.4%. It also gave a residual activity [16] of 106%, a residual activity [17] of 89.5% and a residual activity [18] of 104%. The residual activity [19] was 107%, the residual activity [20] was 95% and the residual activity [21] was 107%. The residual activity [22] was 107%, the residual activity [23] was 95.1% and the residual activity [24] was 93.7%. It also gave a residual activity [25] of 91.9%, a residual activity [26] of 104% and a residual activity [27] of 95.1%. The residual activity [28] was 106%, the residual activity [29] was 105% and the residual activity [30] was 102%. For the same molecule, the residual activity [31] was 101% and 103%, the residual activity [32] was 83.4% and the residual activity [33] was 103%. For the same molecule, the residual activity [34] was 102%, the residual activity [35] was 96.1% and the residual activity [36] was 103%. It also gave a residual activity [37] of 97.8%, a residual activity [38] of 111% and a residual activity [39] of 102%. The residual activity [40] was 99.8% and the residual activity [41] was 102%.
`O=c1c(-c2ccc(F)cc2)c(-c2ccncc2)[nH]n1-c1ccc(Cl)cc1` was tested, and the residual activity [1] was 94.5%, the residual activity [2] was 91.9% and the residual activity [3] was 91.2%. For the same molecule, the residual activity [4] was 95.3%, the residual activity [5] was 89.9% and the residual activity [6] was 102%. It also gave a residual activity [7] of 121%, a residual activity [42] of 101% and a residual activity [8] of 104%. For the same molecule, the residual activity [9] was 100%, the residual activity [10] was 101% and the residual activity [11] was 83%. The residual activity [12] was 95%, the residual activity [13] was 92.9% and the residual activity [14] was 87.1%. For the same molecule, the residual activity [15] was 100%, the residual activity [16] was 90% and the residual activity [17] was 98.8%. The residual activity [18] was 84.7%, the residual activity [19] was 92.2% and the residual activity [20] was 35%. For the same molecule, the residual activity [21] was 100%, the residual activity [22] was 90.7% and the residual activity [23] was 94.8%. It also gave a residual activity [24] of 94%, a residual activity [25] of 93.5% and a residual activity [26] of 57%. The residual activity [27] was 91.1%, the residual activity [28] was 83.1% and the residual activity [29] was 101%. For the same molecule, the residual activity [30] was 73.5%, the residual activity [31] was 97.5% and 99.7% and the residual activity [32] was 94.3%. It also gave a residual activity [33] of 97.3%, a residual activity [34] of 93.7% and a residual activity [35] of 106%. The residual activity [36] was 57.7%, the residual activity [37] was 70.1% and the residual activity [38] was 81.9%. It also gave a residual activity [40] of 98.3% and a residual activity [41] of 109%.
Work on `COc1cccc(-c2cc(=O)c3ccccc3o2)c1N` yielded a residual activity [1] of 96.9%, a residual activity [2] of 96% and a residual activity [3] of 103%. For the same molecule, the residual activity [4] was 94.9%, the residual activity [5] was 102% and the residual activity [6] was 100%. The residual activity [7] was 117%, the residual activity [42] was 99% and the residual activity [8] was 96.5%. For the same molecule, the residual activity [9] was 102%, the residual activity [10] was 88% and the residual activity [11] was 92.5%. It also gave a residual activity [12] of 93.4%, a residual activity [13] of 97.1% and a residual activity [14] of 85.7%. The residual activity [15] was 95.3%, the residual activity [16] was 92.1% and the residual activity [17] was 101%. The residual activity [18] was 98.5%, the residual activity [19] was 91.9% and the residual activity [20] was 97.5%. It also gave a residual activity [21] of 102%, a residual activity [22] of 97.8% and a residual activity [23] of 97.3%. It also gave a residual activity [24] of 107%, a residual activity [25] of 97.2% and a residual activity [26] of 81.2%. The residual activity [27] was 91.6%, the residual activity [28] was 91.1% and the residual activity [29] was 101%. For the same molecule, the residual activity [30] was 95.5%, the residual activity [31] was 94.6% and 98.7% and the residual activity [32] was 94.6%. The residual activity [33] was 96.2%, the residual activity [34] was 97.4% and the residual activity [35] was 96.9%. The residual activity [36] was 81.2%, the residual activity [37] was 69.1% and the residual activity [38] was 86.4%. For the same molecule, the residual activity [39] was 93.6%, the residual activity [40] was 95.1% and the residual activity [41] was 84.8%.
`O=C(O)c1ccc2c3c1cccc3c(=O)n1c3ccccc3nc21` gave a residual activity [1] of 79.5%, a residual activity [2] of 127% and a residual activity [3] of 100%. The residual activity [4] was 28.3%, the residual activity [5] was 82.7% and the residual activity [6] was 106%. It also gave a residual activity [7] of 94.7%, a residual activity [42] of 101% and a residual activity [8] of 99%. For the same molecule, the residual activity [9] was 91.8%, the residual activity [10] was 104% and the residual activity [11] was 7.88%. The residual activity [12] was 100%, the residual activity [13] was 103% and the residual activity [14] was 88.3%. It also gave a residual activity [15] of 88%, a residual activity [16] of 93.3% and a residual activity [17] of 96.6%. The residual activity [18] was 89.8%, the residual activity [19] was 94.5% and the residual activity [20] was 96%. For the same molecule, the residual activity [21] was 101%, the residual activity [22] was 96.7% and the residual activity [23] was 94%. For the same molecule, the residual activity [24] was 78.6%, the residual activity [25] was 43.4% and the residual activity [26] was 105%. The residual activity [27] was 96.7%, the residual activity [28] was 47% and the residual activity [29] was 102%. The residual activity [30] was 103%, the residual activity [31] was 101% and 99.4% and the residual activity [32] was 79.8%. The residual activity [33] was 79.8%, the residual activity [34] was 97.5% and the residual activity [35] was 46.9%. For the same molecule, the residual activity [36] was 96.5%, the residual activity [37] was 93.7% and the residual activity [38] was 107%. The residual activity [39] was 95.1%, the residual activity [40] was 57.3% and the residual activity [41] was 91.2%.
